Read-outs that look alike come from different tables or passages of the source. Each block holds one compound with its values, some of them ahead of it.
Tests used:
[1] = biological target: fibrillar Aβ aggregates (Homo sapiens, UniProt P05067); details: Mathis et al. 1997; read-out: inhibition constants (Ki) for binding to fibrillar Aβ aggregates; cited from earlier work
[2] = biological target: Aβ plaques (postmortem AD brain homogenates) (Homo sapiens, UniProt P05067); experiment: Binding assay: inhibition of [125I]IMPY binding in postmortem AD brain homogenates
Aβ plaques (postmortem AD brain homogenates), sequence (P05067 672-711 limits assumed): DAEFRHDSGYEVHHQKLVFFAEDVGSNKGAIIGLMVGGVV
Method: Postmortem brain tissues were obtained from AD patients at autopsy, and neuropathological diagnosis was confirmed by current criteria (NIA-Reagan Institute Consensus Group, 1997). Homogenates were then prepared from dissected gray matters from AD patients in phosphate buffered saline (PBS, pH 7.4) at the concentration of approximately 100 mg wet tissue/ml (motor-driven glass homogenizer with setting of 6 for 30 sec).
Binding assays were carried out in 12×75 mm borosilicate glass tubes. […] The mixture was incubated at 37° C. for 2 hr and the bound and the free radioactivity were separated by vacuum filtration through Whatman GF/B filters using a Brandel M-24R cell harvester followed by 2×3 ml washes of PBS at room temperature. Filters containing the bound ^125I ligand were assayed for radioactivity content in a gamma counter (Packard 5000) with 70% counting efficiency. […] The results of inhibition experiments were subjected to nonlinear regression analysis using EBDA by which Ki values were calculated.

[3] = Organ distribution in normal mice after iv injection of [18F]tracers; type: in vivo; details: ICR mice, [18F]tracer in 0.1% BSA
Method: The organs of interest were removed and weighed, and the radioactivity was assayed for radioactivity content with an automatic gamma counter. The percentage dose per organ was calculated by a comparison of the tissue counts to suitably diluted aliquots of the injected material. Total activities of blood were calculated under the assumption that they were 7% of the total body weight. The % dose/g of samples was calculated by comparing the sample counts with the count of the diluted initial dose.

[4] = biological target: AD cortical homogenates; details: Kung et al. 2004, cited from earlier work
[5] = test system: Aβ plaques; details: cited from earlier work
[6] = Partition coefficient (1-octanol/buffer); type: physicochemical; details: 1-octanol / 0.1 M phosphate buffer, pH 7.4
Method: Partition coefficients were measured by mixing the [^18F]tracer with 3 g each of 1-octanol and buffer (0.1 M phosphate, pH 7.4) in a test tube. The test tube was vortexed for 3 min at room temperature, followed by centrifugation for 5 min. Two weighed samples (0.5 g each) from the 1-octanol and buffer layers were counted in a well counter. The partition coefficient was determined by calculating the ratio of cpm/g of 1-octanol to that of buffer. Samples from the 1-octanol layer were re-partitioned until consistent partitions of coefficient values were obtained (usually the 3rd or 4th partition). The measurement was done in triplicate and repeated three times.

fibrillar Aβ aggregates, sequence (P05067 672-711 limits assumed): as above

Compound: O=C(O)c1cc(/N=N/c2ccc(-c3ccc(/N=N/c4ccc(O)c(C(=O)O)c4)cc3)cc2)ccc1O [CG, chrysamine-G]
Ki [1]: 370 nM

Compound: CNc1ccc(/C=C/c2ccc(O)cc2)cc1 [[^3H]SB-13]
Kd [4]: 2.4 ± 0.2 nM

Compound: [3H]N(c1ccc(/C=C/c2ccc(O)cc2)cc1)C([3H])([3H])[3H] [[^3H]SB-13]
binding capacity ([4]; AD cortical homogenates): 14-45 pmol/mg protein

Compound: [11CH3]Nc1ccc(-c2nc3ccc(O)cc3s2)cc1 [[^11C]6-OH-BTA-1]
retention in the cortex ([5]; patients with diagnosed mild AD): marked retention

Compound: [11CH3]Nc1ccc(/C=C/c2ccc(O)cc2)cc1 [[^11C]SB-13]
accumulation in the frontal cortex ([5]; mild to moderate AD patients, not in age-matched control subjects): high accumulation

Compound: CNc1ccc(C=Cc2ccc(OCCOCC[18F])cc2)cc1 [[^18F]12a, [^18F][4-(2-{4-[2-(2-Fluoro-ethoxy)-ethoxy]-phenyl}-vinyl)-phenyl]-methyl-amine]
logp value (lipophilicity) [6]: 2.52

Compound: CNc1ccc(C=Cc2ccc(OCCOCCOCC[18F])cc2)cc1 [[^18F]12b, [^18F]{4-[2-(4-{2-[2-(2-Fluoro-ethoxy)-ethoxy]-ethoxy}-phenyl)-vinyl]-phenyl}-methyl-amine]
logp value (lipophilicity) [6]: 2.41 | Bone ([3]; 2 hr): 2.74 % dose/g

Compound: CNc1ccc(C=Cc2ccc(OCCOCCOCCOCC[18F])cc2)cc1 [[^18F]12c]
logp value (lipophilicity) [6]: 2.05

Compound: CNc1ccc(C=Cc2ccc(OCCOCCOCCOCCOCC[18F])cc2)cc1 [[^18F]12d]
logp value (lipophilicity) [6]: 2.28

Compound: CC(=C(C#N)C#N)c1ccc2cc(N(C)CCF)ccc2c1 [[^18F]FDDNP]
relative residence time of the brain region of interest versus the pons ([5]; AD patients versus comparison subjects, PET): significantly higher in AD patients

Results, then the compound that gave them:

Ki ([2]; read-out: Ki ± SEM, X = OH): 5.2 ± 0.4 nM
Compound: CNc1ccc(C=Cc2ccc(OCCOCCO)cc2)cc1 [Compound 3a, 2-(2-{4-[2-(4-Methylamino-phenyl)-vinyl]-phenoxy}-ethoxy)-ethanol]

Ki ([2]; read-out: Ki ± SEM, X = OH): 2.8 ± 0.2 nM
Compound: CNc1ccc(C=Cc2ccc(OCCOCCOCCO)cc2)cc1 [Compound 3b, 2-[-2-(2-{4-[2-(4-Methylamino-phenyl)-vinyl]-phenoxy}-ethoxy)-ethoxy]-ethanol]

Ki ([2]; read-out: Ki ± SEM, X = OH): 4.6 ± 0.2 nM
Compound: CNc1ccc(C=Cc2ccc(OCCOCCOCCOCCO)cc2)cc1 [Compound 3c, 2-{2-[2-(2-{4-[2-(4-Methylamino-phenyl)-vinyl]-phenoxy}-ethoxy)-ethoxy]-ethoxy}-ethanol]

Ki ([2]; read-out: Ki ± SEM, X = OH): 5.2 ± 0.2 nM
Compound: CNc1ccc(C=Cc2ccc(OCCOCCOCCOCCOCCO)cc2)cc1 [Compound 3d, 2-(2-{2-[2-(2-{4-[2-(4-Methylamino-phenyl)-vinyl]-phenoxy}-ethoxy)-ethoxy]-ethoxy}-ethoxy)-ethanol]

Ki ([2]; read-out: Ki ± SEM, X = F): 2.9 ± 0.2 nM | Blood ([3]; 2 min): 2.64 ± 0.55 % dose/g | Bone ([3]; 2 min): 1.89 ± 0.25 % dose/g | Brain ([3]; 2 min): 8.14 ± 2.03 % dose/g | Blood ([3]; 30 min): 2.42 ± 0.27 % dose/g | Bone ([3]; 30 min): 1.40 ± 0.11 % dose/g | Brain ([3]; 30 min): 3.00 ± 0.16 % dose/g | Blood ([3]; 1 hr): 2.04 ± 0.16 % dose/g | Bone ([3]; 1 hr): 1.71 ± 0.23 % dose/g | Brain ([3]; 1 hr): 2.60 ± 0.22 % dose/g | Blood ([3]; 2 hr): 2.77 ± 0.63 % dose/g | Bone ([3]; 2 hr): 2.88 ± 0.07 % dose/g | Brain ([3]; 2 hr): 2.14 ± 0.06 % dose/g
Compound: CNc1ccc(C=Cc2ccc(OCCOCCF)cc2)cc1 [Compound 12a, [4-(2-{4-[2-(2-Fluoro-ethoxy)-ethoxy]-phenyl}-vinyl)-phenyl]-methyl-amine]

Blood ([3]; 2 min): 3.22 ± 0.20 % dose/g | Bone ([3]; 2 min): 2.31 ± 0.12 % dose/g | Brain ([3]; 2 min): 6.59 ± 0.19 % dose/g | Blood ([3]; 30 min): 1.88 ± 0.08 % dose/g | Bone ([3]; 30 min): 1.00 ± 0.02 % dose/g | Brain ([3]; 30 min): 1.27 ± 0.03 % dose/g | Blood ([3]; 1 hr): 1.81 ± 0.48 % dose/g | Bone ([3]; 1 hr): 0.98 ± 0.27 % dose/g | Brain ([3]; 1 hr): 1.20 ± 0.10 % dose/g | Blood ([3]; 2 hr): 1.60 ± 0.12 % dose/g | Bone ([3]; 2 hr): 1.50 ± 0.05 % dose/g | Brain ([3]; 2 hr): 1.21 ± 0.06 % dose/g
Compound: CNc1ccc(C=Cc2ccc(OCCOCCOCCOCCF)cc2)cc1 [Compound 12c, (4-{2-[4-(2-{2-[2-(2-Fluoro-ethoxy)-ethoxy]-ethoxy}-ethoxy)-phenyl]-vinyl}-phenyl)-methyl-amine]

Ki ([2]; read-out: Ki ± SEM, X = F): 6 ± 0.8 nM | Blood ([3]; 2 min): 4.99 ± 0.38 % dose/g | Bone ([3]; 2 min): 2.24 ± 0.21 % dose/g | Brain ([3]; 2 min): 7.30 ± 1.05 % dose/g | Blood ([3]; 30 min): 4.66 ± 0.06 % dose/g | Bone ([3]; 30 min): 2.29 ± 0.21 % dose/g | Brain ([3]; 30 min): 2.43 ± 0.03 % dose/g | Blood ([3]; 1 hr): 2.89 ± 0.11 % dose/g | Bone ([3]; 1 hr): 1.66 ± 0.01 % dose/g | Brain ([3]; 1 hr): 1.77 ± 0.11 % dose/g | Blood ([3]; 2 hr): 2.59 ± 0.18 % dose/g | Bone ([3]; 2 hr): 2.35 ± 0.27 % dose/g | Brain ([3]; 2 hr): 1.62 ± 0.03 % dose/g
Compound: CNc1ccc(C=Cc2ccc(OCCOCCOCCOCCOCCF)cc2)cc1 [Compound 12d, [4-(2-{4-[2-(2-{2-[2-(2-Fluoro-ethoxy)-ethoxy]-ethoxy}-ethoxy)-ethoxy]-phenyl}-vinyl)-phenyl]-methyl-amine]

From US7858072B2, “Stilbene derivatives and their use for binding and imaging amyloid plaques” (The Trustees of the University of Pennsylvania, priority 2004, dated 2010)
